From patent US7109193B2, “Tricyclic diazepines tocolytic oxytocin receptor antagonists” (Wyeth, priority 2001, dated 2006) come the findings set out here.

As usually defined, the inhibition is the percentage by which the read-out fell short of the control. As usually defined, the IC50 is the midpoint of a concentration-inhibition curve.

The assay concerns the target T1, human vasopressin V2 receptor subtype (Homo sapiens, UniProt P30518).
T1 construct: host or cells: CHO cells (pZeoSV vector)
The assay can be described thus: Vasopressin binding in Chinese Hamster Ovary cell membranes expressing human vasopressin V2 subtype receptors. As to conditions: CHO cell membranes, [3H]arginine vasopressin; for inhibition at 0.1 µM: 100 nM, values without parentheses; for IC50: values in parentheses. In a few lines:
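Radioligand displacement on membranes from CHO cells stably expressing human V2 receptor, 25 to 50 μg protein/well, in 50 mM Tris-HCl pH 7.4 with MgCl2, BSA and protease inhibitors. [^3H]arginine vasopressin (8 nM working solution) incubated 60 min at room temperature; bound label measured by filtration and scintillation counting.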

Where a name gives a salt, the structure may show the parent alone.

T1 sequence (P30518 whole entry): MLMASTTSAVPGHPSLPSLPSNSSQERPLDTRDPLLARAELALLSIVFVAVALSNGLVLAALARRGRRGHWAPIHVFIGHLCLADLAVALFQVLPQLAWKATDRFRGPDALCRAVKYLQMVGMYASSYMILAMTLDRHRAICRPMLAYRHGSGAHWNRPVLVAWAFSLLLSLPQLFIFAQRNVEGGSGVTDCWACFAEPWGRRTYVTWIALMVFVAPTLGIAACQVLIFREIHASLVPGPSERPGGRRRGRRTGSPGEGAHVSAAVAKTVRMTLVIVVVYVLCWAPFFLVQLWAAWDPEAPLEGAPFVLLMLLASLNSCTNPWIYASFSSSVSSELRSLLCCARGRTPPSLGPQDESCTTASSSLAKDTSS

For the compound `Cc1ccccc1-c1ccc(C(=O)N2Cc3ccc(C(=O)N(C)CCCN(C)C)n3Cc3ccccc32)cc1C` [Example 101, N-[3-(Dimethylamino)propyl]-10-[(2,2′-dimethyl[1,1′-biphenyl]-4-yl)carbonyl]-N-methyl-10,11-dihydro-5H-pyrrolo[2,1-c][1,4]benzodiazepine-3-carboxamide], the inhibition at 0.1 µM amounted to 7%.

`COc1ccccc1-c1ccc(C(=O)N2Cc3ccc(C(=O)N4CC[C@@H](N(C)C)C4)n3Cc3ccccc32)cc1C` [Example 272, [(3R)-3-(Dimethylamino)pyrrolidinyl]{10-[(2′-methoxy-2-methyl[1,1′-biphenyl]-4-yl)carbonyl]-10,11-dihydro-5H-pyrrolo[2,1-c][1,4]benzodiazepin-3-yl}methanone]: the IC50 was determined as 1300 nM.

In the case of `COc1ccccc1-c1ccc(C(=O)N2Cc3ccc(C(=O)N(C)CCN(C)C)n3Cc3ccccc32)cc1` [Example 90, N-[2-(Dimethylamino)ethyl]-10-[(2′-methoxy[1,1′-biphenyl]-4-yl)carbonyl]-N-methyl-10,11-dihydro-5H-pyrrolo[2,1-c][1,4]benzodiazepine-3-carboxamide], the inhibition at 0.1 µM amounted to 19%. Consider `COc1cc(C(=O)N2Cc3ccc(C(=O)N(C)CCCN(C)C)n3Cc3ccccc32)ccc1-c1cccc2ccccc12` [Example 106, N-[3-(Dimethylamino)propyl]-10-[3-methoxy-4-(1-naphthyl)benzoyl]-N-methyl-10,11-dihydro-5H-pyrrolo[2,1-c][1,4]benzodiazepine-3-carboxamide], for which the inhibition at 0.1 µM was found to be 34%. With `Cc1cc(C(=O)N2Cc3ccc(C(=O)N4CCNCC4)n3Cc3ccccc32)ccc1-c1ccccc1C(F)(F)F` [Example 7, 10,11-Dihydro-10-[[2-methyl-2′-trifluoromethyl-[1,1′-biphenyl]-4-yl]carbonyl]-3-(1-piperazinylcarbonyl)-5H-pyrrolo[2,1-c][1,4]benzodiazepine hydrochloride salt], the IC50 turned out to be 2460 nM.

Regarding `Cc1ccccc1-c1ccc(C(=O)N2Cc3ccc(C(=O)N(C)CCN(C)C)n3Cc3ccccc32)cc1` [Example 91, N-[2-(Dimethylamino)ethyl]-N-methyl-10-[(2′-methyl[1,1′-biphenyl]-4-yl)carbonyl]-10,11-dihydro-5H-pyrrolo[2,1-c][1,4]benzodiazepine-3-carboxamide], the inhibition at 0.1 µM was found to be 17%.

For `COc1cc(C(=O)N2Cc3ccc(C(=O)N(C)CCN(C)C)n3Cc3ccccc32)ccc1-c1ccccc1C` [Example 92, N-[2-(Dimethylamino)ethyl]-10-[(2-methoxy-2′-methyl[1,1′-biphenyl]-4-yl)carbonyl]-N-methyl-10,11-dihydro-5H-pyrrolo[2,1-c][1,4]benzodiazepine-3-carboxamide], the inhibition at 0.1 µM was 20%.

`CN(C)CCN(C)C(=O)c1ccc2n1Cc1ccccc1N(C(=O)c1ccc(-c3cccc4ccccc34)cc1Cl)C2` [Example 96, 10-[2-Chloro-4-(1-naphthyl)benzoyl]-N-[2-(dimethylamino)ethyl]-N-methyl-10,11-dihydro-5H-pyrrolo[2,1-c][1,4]benzodiazepine-3-carboxamide]: the inhibition at 0.1 µM was 24%. For `COc1cccc(-c2cc(OC)c(C(=O)N3Cc4ccc(C(=O)NCCCN(C)C)n4Cc4ccccc43)cc2Cl)c1` [Example 79, 10-[(6-Chloro-3,3′-dimethoxy[1,1′-biphenyl]-4-yl)carbonyl]-N-[3-(dimethylamino)propyl]-10,11-dihydro-5H-pyrrolo[2,1-c][1,4]benzodiazepine-3-carboxamide], the inhibition at 0.1 µM was determined as 7%. Take `COc1ccccc1-c1ccc(C(=O)N2Cc3ccc(C(=O)N(C)CCCN(C)C)n3Cc3ccccc32)cc1C` [Example 100, N-[3-(Dimethylamino)propyl]-10-[(2′-methoxy-2-methyl[1,1′-biphenyl]-4-yl)carbonyl]-N-methyl-10,11-dihydro-5H-pyrrolo[2,1-c][1,4]benzodiazepine-3-carboxamide]: the inhibition at 0.1 µM was found to be 26%. Turning to `COc1cccc(-c2ccc(C(=O)N3Cc4ccc(C(=O)N(C)CCN(C)C)n4Cc4ccccc43)cc2C)c1` [Example 89, N-[2-(Dimethylamino)ethyl]-10-[(3′-methoxy-2-methyl[1,1′-biphenyl]-4-yl)carbonyl]-N-methyl-10,11-dihydro-5H-pyrrolo[2,1-c][1,4]benzodiazepine-3-carboxamide], the inhibition at 0.1 µM worked out at 13%.

For the compound `COc1cc(-c2ccccc2C)c(Cl)cc1C(=O)N1Cc2ccc(C(=O)N3CC[C@@H](N(C)C)C3)n2Cc2ccccc21` [Example 273, {10-[(6-Chloro-3-methoxy-2′-methyl[1,1′-biphenyl]-4-yl)carbonyl]-10,11-dihydro-5H-pyrrolo[2,1-c][1,4]benzodiazepin-3-yl}[(3R)-3-(dimethylamino)pyrrolidinyl]methanone], the 50% inhibitory concentration (IC50) is 812 nM. With `COc1ccccc1-c1ccc(C(=O)N2Cc3ccc(C(=O)N(C)CCCN(C)C)n3Cc3ccccc32)cc1` [Example 103, N-[3-(Dimethylamino)propyl]-10-[(2′-methoxy[1,1′-biphenyl]-4-yl)carbonyl]-N-methyl-10,11-dihydro-5H-pyrrolo[2,1-c][1,4]benzodiazepine-3-carboxamide], the inhibition at 0.1 µM amounted to 11%. Consider `Cc1cc(C(=O)N2Cc3ccc(C(=O)N4CCCN(C)CC4)n3Cc3ccccc32)ccc1-c1ccccc1C(F)(F)F` [Example 59, (4-Methyl-1,4-diazepan-1-yl)(10-{[2-methyl-2′-(trifluoromethyl)[1,1′-biphenyl]-4-yl]carbonyl}-10,11-dihydro-5H-pyrrolo[2,1-c][1,4]benzodiazepin-3-yl)methanone], for which the IC50 came out at 2310 nM. Same read-out and setting: in the case of `COc1ccccc1-c1ccc(C(=O)N2Cc3ccc(C(=O)N4CCCN(C)CC4)n3Cc3ccccc32)cc1` [Example 61, {10-[(2′-Methoxy[1,1′-biphenyl]-4-yl)carbonyl]-10,11-dihydro-5H-pyrrolo[2,1-c][1,4]benzodiazepin-3-yl}(4-methyl-1,4-diazepan-1-yl)methanone] it was 745 nM; in that of `COc1cc(-c2ccccc2C)c(Cl)cc1C(=O)N1Cc2ccc(C(=O)N(C)CCN(C)C)n2Cc2ccccc21` [Example 86, 10-[(6-Chloro-3-methoxy-2′-methyl[1,1′-biphenyl]-4-yl)carbonyl]-N-[2-(dimethylamino)ethyl]-N-methyl-10,11-dihydro-5H-pyrrolo[2,1-c][1,4]benzodiazepine-3-carboxamide], 1700 nM. For the compound `COc1cccc(-c2ccc(C(=O)N3Cc4ccc(C(=O)NCCCN(C)C)n4Cc4ccccc43)cc2OC)c1` [Example 82, 10-[(2,3′-Dimethoxy[1,1′-biphenyl]-4-yl)carbonyl]-N-[3-(dimethylamino)propyl]-10,11-dihydro-5H-pyrrolo[2,1-c][1,4]benzodiazepine-3-carboxamide], the inhibition at 0.1 µM worked out at 10%. In the case of `COc1ccccc1-c1ccc(C(=O)N2Cc3ccc(C(=O)N4CCN(CCN5CCOCC5)CC4)n3Cc3ccccc32)cc1` [Example 207, {10-[(2′-Methoxy[1,1′-biphenyl]-4-yl)carbonyl]-10,11-dihydro-5H-pyrrolo[2,1-c][1,4]benzodiazepin-3-yl}{4-[2-(4-morpholinyl)ethyl]-1-piperazinyl}methanone], the IC50 is 601 nM. For the compound `O=C(c1ccc(-c2cccc3ccccc23)cc1Cl)N1Cc2cccn2Cc2ccccc21` [Example 24, [2-Chloro-4-(naphthalen-1-yl)phenyl][10,11-dihydro-5H-pyrrolo[2,1-c][1,4]benzodiazepin-10-yl]methanone], the IC50 was determined as 4.7 nM. With `COc1cc(-c2ccccc2C)c(Cl)cc1C(=O)N1Cc2ccc(C(=O)N3CCN(C)CC3)n2Cc2ccccc21` [Example 47, {10-[(6-Chloro-3-methoxy-2′-methyl[1,1′-biphenyl]-4-yl)carbonyl]-10,11-dihydro-5H-pyrrolo[2,1-c][1,4]benzodiazepin-3-yl}(4-methyl-1-piperazinyl)methanone], the IC50 is 722 nM. For the compound `Cc1ccccc1-c1ccc(C(=O)N2Cc3ccc(C(=O)N(C)CCCN(C)C)n3Cc3ccccc32)cc1` [Example 104, N-[3-(Dimethylamino)propyl]-N-methyl-10-[(2′-methyl[1,1′-biphenyl]-4-yl)carbonyl]-10,11-dihydro-5H-pyrrolo[2,1-c][1,4]benzodiazepine-3-carboxamide], the inhibition at 0.1 µM worked out at 20%. For `COc1ccccc1-c1ccc(C(=O)N2Cc3ccc(C(=O)N(C)CCN(C)C)n3Cc3ccccc32)cc1C` [Example 88, N-[2-(Dimethylamino)ethyl]-10-[(2′-methoxy-2-methyl[1,1′-biphenyl]-4-yl)carbonyl]-N-methyl-10,11-dihydro-5H-pyrrolo[2,1-c][1,4]benzodiazepine-3-carboxamide], the inhibition at 0.1 µM is 30%.

As to `COc1cccc(-c2ccc(C(=O)N3Cc4ccc(C(=O)N(C)CCCN(C)C)n4Cc4ccccc43)cc2C)c1` [Example 102, N-[3-(Dimethylamino)propyl]-10-[(3′-methoxy-2-methyl[1,1′-biphenyl]-4-yl)carbonyl]-N-methyl-10,11-dihydro-5H-pyrrolo[2,1-c][1,4]benzodiazepine-3-carboxamide], the inhibition at 0.1 µM was found to be 18%. Turning to `Cc1cc(C(=O)N2Cc3ccc(C(=O)N4CCC[C@H]4CN4CCCC4)n3Cc3ccccc32)ccc1-c1ccccc1C(F)(F)F` [Example 258, (10-{[2-Methyl-2′-(trifluoromethyl)[1,1′-biphenyl]-4-yl]carbonyl}-10,11-dihydro-5H-pyrrolo[2,1-c][1,4]benzodiazepin-3-yl)[(2S)-2-(1-pyrrolidinylmethyl)pyrrolidinyl]methanone], the IC50 is 5680 nM.

Turning to `COc1ccccc1-c1ccc(C(=O)N2Cc3ccc(C(=O)N4CCN(CCN5CCOCC5)CC4)n3Cc3ccccc32)cc1C` [Example 206, {10-[(2′-Methoxy-2-methyl[1,1′-biphenyl]-4-yl)carbonyl]-10,11-dihydro-5H-pyrrolo[2,1-c][1,4]benzodiazepin-3-yl}{4-[2-(4-morpholinyl)ethyl]-1-piperazinyl}methanone], the IC50 is 190 nM.
